Assay results published in US9221873B1, “Short-chain peptide capable of controlling spermatozoa fertilization performance” (NATIONAL TAIWAN UNIVERSITY, priority 2014, dated 2015).

Tests used:
[1] = system: mouse spermatozoa; assay: Measuring the [Ca2+]i in spermatozoa (Fluo-4 AM fluorescence); assay type: cell-based; details: FIG. 1; for [Ca2+]i increases by (change in fluorescent intensity, (F'-F0)/F0): plateau phase 27-30 minutes
Method: Spermatozoa are prepared for measuring changes in the intracellular concentration of free calcium ions ([Ca^2]i). Modified HEPES medium (120 mM of NaCl, 2 mM of KCl, 1.2 mM of MgSO4.7H2O, 0.36 mM of NaH2PO4, 15 mM of NaHCO3, 10 mM of HEPES, 5.6 mM of glucose, 1.1 mM of sodium pyruvate, 18.5 mM of sucrose, 100 IU/ml of penicillin, and 100 μg/ml of streptomycin), spermatozoa culture medium, is pre-incubated in incubator with 5% CO2 at 37° C. for 24 hours before using to adjust the medium pH ranges between 7.3 and 7.4. The cauda epididymis is cut into several pieces, incubated in the medium at 37° C. for 20 minutes, put on 1 ml of 75% (v/v) Percoll solution, and centrifuged at 300×g for 30 minutes to isolate higher motility spermatozoa for [Ca^2+]i measurement experiment.
Changes in the [Ca^2+]i in uncapacitated spermatozoa are measured. Spermatozoa (1×10^8 cells per milliliter) is incubated in modified HEPES medium, containing 15 μM of Fluo-4 AM, in the darkness at 37° C. for 45 minutes. Fluo-4 AM is a fluorescent Ca^2+ indicator capable of penetrating cell membranes. Then, the spermatozoa are washed thrice by 100×g centrifugation at room temperature for 5 minutes to remove the residual dye. The sperm cell pellet is suspended in a modified HEPES medium, containing 1.8 mM of CaCl2, and the cell concentration is adjusted to 5×10^6 cells per milliliter. […] The changes of fluorescent intensity are measured with the Synergy H1 Hybrid Multi-Mode Microplate Reader (Bio-Tek, Winooski, Vt., USA) at 37° C. via an excitation wavelength of 485 nm and an emission wavelength of 520 nm. […] Changes in [Ca^2+]i are calculated with the equation (F′−F0)/F0 (%), wherein F′ denotes the fluorescent intensity measured at different time points during the experiment, and F0 denotes the average of fluorescent intensity measured 0 to 5 minutes before adding kisspeptin-10. Last but not least, the average change in the fluorescent intensity during the plateau phase (27˜30 minutes) of [Ca^2+]i is calculated.

[2] = system: spermatozoa; assay: IVF test (in vitro fertilization, success fertilization rate); assay type: cell-based, mouse; details: spermatozoa incubated with 50 μM during capacitation, 2 hours, 37° C.; control group larger than 80%; binds KISS1R; FIG. 2
Method: In the in vitro fertilization experiment, spermatozoa isolated from cauda epididymis are incubated in HTF (human tubal fluid) medium (Merck Millipore) at 37° C. for 20 minutes and then diluted the cell concentration to 1×10^6 spermatozoa per milliliter.
The uncapacitated spermatozoa is incubated in HTF medium and then treated with peptide 234 during capacitation step, such that kisspeptin signal effects on final fertilization step is evaluated. The 0.9% saline is added to the control group to substitute for the peptide 234 solution. In detail, spermatozoa (1×10^6 cell per milliliter) are incubated in a capacitation-condition medium with 50 μM peptide 234 or saline at 37° C. for 2 hours. Then, the fertilization process begins with the introduction of cumulus-oocyte complexes (COCs) into the culture medium and incubation at 37° C. for 6 hours. The oocytes are washed thrice and incubated in KSOM+AAs culture medium (potassium simplex optimized medium plus amino acids, Merk Millipore) for 24 hours. The success fertilization rate is calculated according to the ratio of the number of two-cell embryos to the total number of oocytes. […]

Row | Substance | [Ca2+]i increases by (change in fluorescent intensity, (F'-F0)/F0) ([1]; mouse spermatozoa treated with 50 μM) | [Ca2+]i increases by (change in fluorescent intensity, (F'-F0)/F0) ([1]; mouse spermatozoa treated with 100 μM) | [Ca2+]i change (fluorescent intensity), in words ([1]; mouse spermatozoa treated with 25, 50 and 100 μM) | success fertilization rate (two-cell embryos / total oocytes) [2]
1 | kisspeptin 10: short-chain peptide kisspeptin-10 (SEQ ID NO:6), rodent expressed kisspeptin, purchased from Kelowna international Scientific (YNWNSFGLRY; Rodent expressed kisspeptin-10) | 85.5±14.4% | 129.9±24.9% | increases | –
2 | peptide 234: kisspeptin antagonist peptide 234 (SEQ ID NO:10), binds to KISS1R on the spermatozoa (ANWNGFGWRF; Kisspeptin antagonist peptide 234) | – | – | – | less than 60%
